For data set [1], the system named is Human immunodeficiency virus 1. In words: Antiviral activity against HIV1 NL4-3 infected in human MT4 cells assessed as p24 antigen level after 4 days by ELISA. The class given is functional, organism-based. To be noted: Human immunodeficiency virus 1, NL4-3, MT4, 96 h. (In general: ELISA stands for enzyme-linked immunosorbent assay.)
Data set [2] is described as follows: Therapeutic index, ratio of CC50 for human MT4 cells to EC50 for HIV1 NL4-3. To be noted: read-out: TI. The class given is cell-based.
The subject of a further data set is MT4. As to the kind of experiment: Cytotoxicity against human MT4 cells by XTT assay. The class given is cell-based.
A further data set deals with MT2. Particulars: human; call rule not given here.
Data set [3] in a line: Therapeutic index, ratio of CC50 for human MT2 cells to EC50 for HIV1 3B. Particulars: read-out: TI. Type of data set: cell-based.
Data set [4] has as its system Human immunodeficiency virus 1. In words: Antiviral activity against HIV1 3B infected in human MT2 cells assessed as p24 antigen level after 4 days by ELISA. The class given is functional, organism-based. To be noted: Human immunodeficiency virus 1, 3B, MT2, 96 h.
For data set [5], the system named is Human immunodeficiency virus 1. As to the kind of experiment: Antiviral activity against HIV1 3B infected in human MT2 cells assessed as p24 antigen level at their respective CC50 concentration after 4 days by ELISA. Type of data set: functional, organism-based.

Description for MT2: Cytotoxicity against human MT2 cells by XTT assay

In the case of `C=C(C)[C@@H]1CC[C@]2(C(=O)NCCCCCCCNC(C)=O)CC[C@]3(C)[C@H](CC[C@@H]4[C@@]5(C)CC[C@H](O)C(C)(C)[C@@H]5CC[C@]43C)[C@@H]12`, the concentration for a half-maximal effect (EC50) (in general, the concentration that produces a half-maximal response) in data set [1] came to 0.092 µM. Further, the selectivity ratio in data set [2] is above 150. This compound came in with a CC50 with MT4 above 10 µM.

For `C=C(CBr)[C@@H]1CC[C@]2(C(=O)N[C@@H](CC(C)C)C(=O)O)CC[C@]3(C)[C@H](CC[C@@H]4[C@@]5(C)CC[C@H](OC(=O)CC(C)(C)C(=O)O)C(C)(C)[C@@H]5CC[C@]43C)[C@@H]12`, the CC50 in the data set with MT2 is 33.2 µM. Moreover, the selectivity ratio in data set [3] was 3020. Besides, in data set [4], the concentration giving a half-maximal response (EC50) was 0.011 µM.

In turn, `C=C(CBr)[C@@H]1CC[C@]2(C(=O)NCCCCCCCC(=O)O)CC[C@]3(C)[C@H](CC[C@@H]4[C@@]5(C)CC[C@H](O)C(C)(C)[C@@H]5CC[C@]43C)[C@@H]12` came in with a CC50 in the data set on MT2 of 36.9 µM. Besides, in data set [3], the selectivity ratio is 16.1. Also, in data set [4], the concentration giving a half-maximal response (EC50) turned out to be 2.3 µM.

`C=C(COCCc1ccccc1)[C@@H]1CC[C@]2(C(=O)N[C@@H](CC(C)C)C(=O)O)CC[C@]3(C)[C@H](CC[C@@H]4[C@@]5(C)CC[C@H](O)C(C)(C)[C@@H]5CC[C@]43C)[C@@H]12`: the 50% effective concentration (EC50) result in data set [5] was “Not Active”. For the same compound, in the data set with MT2, the CC50 turned out to be 21.7 µM.

With `C=C(C)[C@@H]1CC[C@]2(C(=O)N3CCC(CCCC(=O)NCCN4CCOCC4)CC3)CC[C@]3(C)[C@H](CC[C@@H]4[C@@]5(C)CC[C@H](OC(=O)CC(C)(C)C(=O)O)C(C)(C)[C@@H]5CC[C@]43C)[C@@H]12`, the figures for the concentration for a half-maximal effect (EC50) in data set [1] and in data set [4] were 0.035 µM and 0.007 µM, respectively. Besides, the selectivity ratio in data set [2] amounted to 284; in data set [3], 2470. In addition, the CC50 came to 17.3 µM in the data set on MT2 and 8.5 µM with MT4.

On to `C=C(C)[C@@H]1CC[C@]2(C(=O)N3CCC(CCCC(=O)NC)CC3)CC[C@]3(C)[C@H](CC[C@@H]4[C@@]5(C)CC[C@H](OC(=O)CC(C)(C)C(=O)O)C(C)(C)[C@@H]5CC[C@]43C)[C@@H]12`, for which the EC50 in data set [1] came out at 0.24 µM; in data set [4], 0.067 µM. Also, the CC50 with MT2 is 33.3 µM; with MT4 it was above 10 µM. Also, the selectivity ratio in data set [3] was 497.

With `C=C(C)[C@@H]1CC[C@]2(C(=O)NCCCCCCCC(=O)N[C@@H](CC(C)C)[C@H](O)CC(=O)O)CC[C@]3(C)[C@H](CC[C@@H]4[C@@]5(C)CC[C@H](O)C(C)(C)[C@@H]5CC[C@]43C)[C@@H]12`, the concentration giving a half-maximal response (EC50) in data set [1] was 0.089 µM. Besides, in the data set with MT4, the CC50 is above 10 µM.

With `C=C(COCCN1CCOCC1)[C@@H]1CC[C@]2(C(=O)NCCCCCCCC(=O)NC)CC[C@]3(C)[C@H](CC[C@@H]4[C@@]5(C)CC[C@H](O)C(C)(C)[C@@H]5CC[C@]43C)[C@@H]12`, the concentration giving a half-maximal response (EC50) in data set [1] and in data set [4] was 0.09 µM throughout. Besides, the selectivity ratio in data set [2] was above 138; in data set [3], 250. In addition, the values for the CC50 with MT2 and with MT4 were 22.3 µM and above 10 µM, respectively.

Consider `C=C(COCCc1ccc(OC)cc1)[C@@H]1CC[C@]2(C(=O)N[C@@H](CC(C)C)C(=O)O)CC[C@]3(C)[C@H](CC[C@@H]4[C@@]5(C)CC[C@H](O)C(C)(C)[C@@H]5CC[C@]43C)[C@@H]12`, for which the EC50 entry in data set [5] was “Not Active”. In addition, in the data set with MT2, the CC50 is 16.7 µM.

Regarding `C=C(CBr)[C@@H]1CC[C@]2(C(=O)N[C@@H](CC(C)C)C(=O)O)CC[C@]3(C)[C@H](CC[C@@H]4[C@@]5(C)CC[C@H](O)C(C)(C)[C@@H]5CC[C@]43C)[C@@H]12`, in data set [5], the EC50 result is reported as “Not Active”. In the data set on MT2, the CC50 is 26.8 µM.

Turning to `C=C(COCCC)[C@@H]1CC[C@]2(C(=O)N[C@@H](CC(C)C)C(=O)O)CC[C@]3(C)[C@H](CC[C@@H]4[C@@]5(C)CC[C@H](O)C(C)(C)[C@@H]5CC[C@]43C)[C@@H]12`, the EC50 entry in data set [5] is “Not Active”. In addition, in the data set with MT2, the CC50 came out at 25.3 µM.

Consider `C=C(C)[C@@H]1CC[C@]2(C(=O)N3CCC(CCCC(=O)N4CCOCC4)CC3)CC[C@]3(C)[C@H](CC[C@@H]4[C@@]5(C)CC[C@H](OC(=O)CC(C)(C)C(=O)O)C(C)(C)[C@@H]5CC[C@]43C)[C@@H]12`, for which the concentration giving a half-maximal response (EC50) is 0.07 µM in data set [1] and 0.011 µM in data set [4]. In addition, the results for the selectivity ratio in data set [2] and in data set [3] were 121 and 1750, respectively. Moreover, the values for the CC50 with MT2 and in the data set with MT4 were 19.2 µM and 8.8 µM, respectively.

As to `C=C(C)[C@@H]1CC[C@]2(C(=O)N[C@@H](CC(C)C)C(=O)O)CC[C@]3(C)[C@H](CC[C@@H]4[C@@]5(C)CC[C@H](O)C(C)(C)[C@@H]5CC[C@]43C)[C@@H]12`, the EC50 result in data set [5] is listed as “Not Active”. Moreover, the CC50 in the data set on MT2 came out at 29.8 µM.

With `C=C(COCCCC)[C@@H]1CC[C@]2(C(=O)N[C@@H](CC(C)C)C(=O)O)CC[C@]3(C)[C@H](CC[C@@H]4[C@@]5(C)CC[C@H](O)C(C)(C)[C@@H]5CC[C@]43C)[C@@H]12`, in data set [5], the EC50 entry is listed as “Not Active”. The CC50 in the data set with MT2 was 24.9 µM.

The compound `C=C(C)[C@@H]1CC[C@]2(C(=O)N3CCC(CCCC(=O)O)CC3)CC[C@]3(C)[C@H](CC[C@@H]4[C@@]5(C)CC[C@H](OC(=O)CC(C)(C)C(=O)O)C(C)(C)[C@@H]5CC[C@]43C)[C@@H]12` yielded a CC50 with MT2 of 20.8 µM. In addition, the selectivity ratio in data set [3] was 1390. Moreover, in data set [4], the 50% effective concentration (EC50) was determined as 0.015 µM.

Consider `C=C(COCCc1ccc(Br)cc1)[C@@H]1CC[C@]2(C(=O)N[C@@H](CC(C)C)C(=O)O)CC[C@]3(C)[C@H](CC[C@@H]4[C@@]5(C)CC[C@H](O)C(C)(C)[C@@H]5CC[C@]43C)[C@@H]12`, for which, in data set [5], the concentration giving a half-maximal response (EC50) result is on record as “Not Active”. In addition, the CC50 with MT2 worked out at 20.8 µM.

In the data set on MT2, `C=C(C)[C@@H]1CC[C@]2(C(=O)N[C@@H](CC(C)C)C(=O)O)CC[C@]3(C)[C@H](CC[C@@H]4[C@@]5(C)CC[C@H](NC(=O)CC(C)(C)C(=O)O)C(C)(C)[C@@H]5CC[C@]43C)[C@@H]12` returned a CC50 of 35.9 µM. For the same compound, the selectivity ratio in data set [3] is 2.7. Also, the EC50 in data set [4] was found to be 13.2 µM.

Take `Cc1cn([C@H]2C[C@H](N=[N+]=[N-])[C@@H](CO)O2)c(=O)[nH]c1=O` [ZIDOVUDINE]: the CC50 in the data set on MT2 amounted to 1870 µM.

Consider `C=C(COCCc1ccc(F)cc1)[C@@H]1CC[C@]2(C(=O)N[C@@H](CC(C)C)C(=O)O)CC[C@]3(C)[C@H](CC[C@@H]4[C@@]5(C)CC[C@H](O)C(C)(C)[C@@H]5CC[C@]43C)[C@@H]12`, for which, in data set [5], the concentration for a half-maximal effect (EC50) result is recorded as “Not Active”. The compound further returned a CC50 in the data set with MT2 of 24.4 µM.

`C=C(CON1CCOCC1)[C@@H]1CC[C@]2(C(=O)N[C@@H](CC(C)C)C(=O)O)CC[C@]3(C)[C@H](CC[C@@H]4[C@@]5(C)CC[C@H](O)C(C)(C)[C@@H]5CC[C@]43C)[C@@H]12`: the EC50 result in data set [5] was “Not Active”. This compound also gave a CC50 in the data set with MT2 of 27.5 µM.

Consider `C=C(C)[C@@H]1CC[C@]2(C(=O)N3CCC(CCCC(=O)NCCCN4CCOCC4)CC3)CC[C@]3(C)[C@H](CC[C@@H]4[C@@]5(C)CC[C@H](OC(=O)CC(C)(C)C(=O)O)C(C)(C)[C@@H]5CC[C@]43C)[C@@H]12`, for which the concentration for a half-maximal effect (EC50) in data set [1] is 0.031 µM; in data set [4], 0.006 µM. In addition, the selectivity ratio turned out to be 246 in data set [2] and 3090 in data set [3]. Besides, the CC50 in the data set on MT2 amounted to 18.5 µM; in the data set with MT4 it was 8.6 µM.

In the case of `C=C(CO)[C@@H]1CC[C@]2(C(=O)NCCCCCCCC(=O)O)CC[C@]3(C)[C@H](CC[C@@H]4[C@@]5(C)CC[C@H](O)C(C)(C)[C@@H]5CC[C@]43C)[C@@H]12`, the CC50 in the data set on MT2 came to 40.7 µM. In addition, in data set [3], the selectivity ratio amounted to 2.8. Also, the EC50 in data set [4] came to 14.8 µM.

In the data set on MT2, `C=C(C)[C@@H]1CC[C@]2(C(=O)N3CCC(CCCC(=O)O)CC3)CC[C@]3(C)[C@H](CC[C@@H]4[C@@]5(C)CC[C@H](OC(=O)CCC(C)(C)C(=O)O)C(C)(C)[C@@H]5CC[C@]43C)[C@@H]12` displayed a CC50 of 33.2 µM. Besides, the selectivity ratio in data set [3] amounted to 145. In data set [4], the EC50 turned out to be 0.23 µM.

`C=C(COCCN1CCOCC1)[C@@H]1CC[C@]2(C(=O)NCCCCCCCC(=O)O)CC[C@]3(C)[C@H](CC[C@@H]4[C@@]5(C)CC[C@H](O)C(C)(C)[C@@H]5CC[C@]43C)[C@@H]12`: in the data set on MT2, the CC50 was found to be 24.8 µM. For the same compound, the selectivity ratio in data set [3] turned out to be 13.8. The concentration giving a half-maximal response (EC50) in data set [4] amounted to 1.8 µM.

With `C=C(COCC)[C@@H]1CC[C@]2(C(=O)N[C@@H](CC(C)C)C(=O)O)CC[C@]3(C)[C@H](CC[C@@H]4[C@@]5(C)CC[C@H](O)C(C)(C)[C@@H]5CC[C@]43C)[C@@H]12`, the concentration for a half-maximal effect (EC50) result in data set [5] is given as “Not Active”. Moreover, the CC50 with MT2 is 40.7 µM.

Compound `C=C(COCCc1ccc(Cl)cc1)[C@@H]1CC[C@]2(C(=O)N[C@@H](CC(C)C)C(=O)O)CC[C@]3(C)[C@H](CC[C@@H]4[C@@]5(C)CC[C@H](O)C(C)(C)[C@@H]5CC[C@]43C)[C@@H]12` displayed a CC50 in the data set with MT2 of 34.6 µM. Also, the selectivity ratio in data set [3] stood at 1.2. Further, in data set [4], the concentration for a half-maximal effect (EC50) was found to be 27.8 µM.

As for `C=C(COCCN1CCOCC1)[C@@H]1CC[C@]2(C(=O)N[C@@H](CC(C)C)C(=O)O)CC[C@]3(C)[C@H](CC[C@@H]4[C@@]5(C)CC[C@H](O)C(C)(C)[C@@H]5CC[C@]43C)[C@@H]12`, in the data set with MT2, the CC50 was 35.8 µM. The selectivity ratio in data set [3] was 1.4. The concentration for a half-maximal effect (EC50) in data set [4] was 26.6 µM.

With `C=C(CO)[C@@H]1CC[C@]2(C(=O)N[C@@H](CC(C)C)C(=O)O)CC[C@]3(C)[C@H](CC[C@@H]4[C@@]5(C)CC[C@H](O)C(C)(C)[C@@H]5CC[C@]43C)[C@@H]12`, in data set [5], the EC50 entry is recorded as “Not Active”. Moreover, in the data set on MT2, the CC50 came to 30.7 µM.
